Assay results as given in patent US9314031B2, “Plant growth regulation” (SYNGENTA PARTICIPATIONS AG, priority 2012, dated 2016).

Key:
[1] = test system: soybeans (Toliman, S40-F8); test: Glasshouse trial, Nitrogen Balance Index (Dualex) of soybeans after leaf spray; type: in vivo, soybean; conditions: for Nitrogen Balance Index 8 days after spray application: spray at growth stage 12
Source text: A glasshouse trial was setup to compare crop enhancement effects of trinexapac-ethyl, seaweed extract, and mixtures of trinexapac-ethyl and seaweed extract at various rates, on two varieties of soybeans (Toliman, S40-F8)
Each treatment was applied as a spray to the leaves of the plant at plant growth stage 12 (trifoliolate leaf on the 2nd node unfolded). Assessments of the Nitrogen Balance Index (NBI) were made 8 days after spray application using a Dualex (Force-A, Orsay Cedex) device; NBI is a measure used to estimate the nitrogen and protein status of a plant.

[2] = test system: soybeans (Toliman, S40-F8); test: Glasshouse trial, shoot length of soybeans after leaf spray; type: in vivo, soybean; conditions: for Shoot length 11 days after spray application: spray at growth stage 12
Source text: A glasshouse trial was setup to compare growth regulation effects of trinexapac-ethyl, seaweed extract, and mixtures of trinexapac-ethyl and seaweed extract at various rates, on two varieties of soybeans (Toliman, S40-F8).
Each treatment was applied as a spray to the leaves of the plant at plant growth stage 12 (trifoliolate leaf on the 2nd node unfolded).

summer barley (Pasadena) = test: Glasshouse trial, lodging of summer barley after leaf spray; type: in vivo; conditions: for % lodging 30 days after spray application: Summer-barley Pasadena, spray at growth stage 30
Source text: (§1) A glasshouse trial was setup to compare growth regulation effects of trinexapac-ethyl, seaweed extract, and mixtures of trinexapac-ethyl and seaweed extract at various rates, on both summer barley (Pasadena) and winter rye (Reknit).
(§2) Each treatment was applied as a spray to the leaves of the plant at plant growth stage 30 (start of stem elongation).

Winter-rye Rekrut = test: Glasshouse trial, lodging of winter rye after leaf spray; type: in vivo; conditions: for % lodging 30 days after spray application: Winter-rye Rekrut, spray at growth stage 30
Source text: as §1, §2

[3] = Soybean var. S40-F8, treatment 1: Moddus 200 g AI/ha
[4] = Soybean var. S40-F8, treatment 2: Moddus 100 g AI/ha
[5] = Soybean var. S40-F8, treatment 3: Moddus 50 g AI/ha
[6] = Soybean var. Toliman, treatment 1: Moddus 200 g AI/ha
[7] = Soybean var. Toliman, treatment 2: Moddus 100 g AI/ha
[8] = Soybean var. Toliman, treatment 3: Moddus 50 g AI/ha
[9] = treatment 1: Moddus 100 g AI/ha
[10] = treatment 2: Moddus 200 g AI/ha

**Q.** With CCOC(=O)C1CC(=O)C(=C(O)C2CC2)C(=O)C1 (centres unmarked) [TXP, trinexapac-ethyl] as the compound, how does the “Nitrogen Balance Index 8 days after spray application” value (“Nitrogen Balance Index 8 days” for short) [1, 3] read?
**A.** Its value is 125.5.

**Q.** What about the “Nitrogen Balance Index 8 days” value [1, 4] of the same compound?
**A.** Its value is 97.9.

**Q.** What about the “Nitrogen Balance Index 8 days” value [1, 5] of the same compound?
**A.** Its value is 77.1.

**Q.** What about the “Nitrogen Balance Index 8 days” value [1, 6] of the same compound?
**A.** Its value is 64.2.

**Q.** What about the “Nitrogen Balance Index 8 days” value [1, 7] of the same compound?
**A.** The value was 48.7.

**Q.** And the “Nitrogen Balance Index 8 days” value [1, 8]?
**A.** Its value is 47.9.

**Q.** And the “Effect on NBI, in words” value ([1]; both soybean varieties, summary of Table 7, compared to untreated control or single components)?
**A.** The value was “increases NBI at high rate”.

**Q.** And the “Shoot length 11 days after spray application” value (shortened to “Shoot length 11 days”) [2, 3]?
**A.** Its value is 34.5 cm.

**Q.** And the “Shoot length 11 days” value [2, 4]?
**A.** The value was 39.5 cm.

**Q.** What about the “Shoot length 11 days” value [2, 5] of the same compound?
**A.** Its value is 45.8 cm.

**Q.** What about the “Shoot length 11 days” value [2, 6] of the same compound?
**A.** Its value is 54.8 cm.

**Q.** What about the “Shoot length 11 days” value [2, 7] of the same compound?
**A.** Its value is 59.3 cm.

**Q.** What about the “Shoot length 11 days” value [2, 8] of the same compound?
**A.** The value was 61.3 cm.

**Q.** And the “Effect on plant length, in words” value ([2]; both soybean varieties, summary of Table 5, all rates, compared to untreated control or TXP alone)?
**A.** The value was “reduces plant length compared to the control”.

**Q.** What about the “% lodging 30 days after spray application” value (shortened to “% lodging 30 days”) (summer barley (Pasadena); [9]) of the same compound?
**A.** The value was 10.0%.

**Q.** What about the “% lodging 30 days” value (summer barley (Pasadena); [10]) of the same compound?
**A.** The value was 6.7%.

**Q.** And the “Effect on lodging, in words” value (summer barley (Pasadena); summer barley, summary of Table 3, all rates, compared to untreated control or TXP alone)?
**A.** The value was “reduces lodging compared to the control”.

**Q.** What about the “% lodging 30 days” value (Winter-rye Rekrut; [9]) of the same compound?
**A.** The value was 6.7%.

**Q.** And the “% lodging 30 days” value (Winter-rye Rekrut; [10])?
**A.** Its value is 0.0%.

**Q.** What about the “Effect on lodging, in words” value (Winter-rye Rekrut; winter rye, summary of Table 3, all rates, compared to untreated control or TXP alone) of the same compound?
**A.** Its value is “reduces lodging compared to the control”.
